Read-outs that look alike come from different tables or passages of the source.
Columns and labels:
[1] = test system: P. berghei liver stage (PbLuc); test: P. berghei luciferase liver stage (PbLuc) assay in HepG2-A16-CD81 hepatocytes; type: cell-based, Plasmodium berghei; details: Plasmodium berghei; for Emax: 12pt dose response, maximum inhibition
[2] = target: recombinant firefly luciferase (Photinus pyralis, UniProt P08659); test: biochemical
[3] = test system: HepG2-A16-CD81 hepatocytes; test: HepG2 cytotoxicity screening (CellTiter-Glo); details: for IC50: HepG2-A16-CD81, read-out: HepG2 tox IC50; for HepG2 cytotoxicity 12pt dose response: Maximum inhibition (%): 12pt dose response
[4] = HepG2 cytotoxicity screening (CellTiter-Glo); details: human, uninfected HepG2-A16-CD81 (EGFP) hepatocytes
[5] = HepG2-A16-CD81, 48 h, 48 h liver stage, HepG2-A16-CD81, read-out: Pbluc (EEF) IC50
[6] = HepG2-A16-CD81, 12pt dose response, read-out: PbLuc 12pt dose response: IC50

Sequence of recombinant firefly luciferase (P08659 whole entry): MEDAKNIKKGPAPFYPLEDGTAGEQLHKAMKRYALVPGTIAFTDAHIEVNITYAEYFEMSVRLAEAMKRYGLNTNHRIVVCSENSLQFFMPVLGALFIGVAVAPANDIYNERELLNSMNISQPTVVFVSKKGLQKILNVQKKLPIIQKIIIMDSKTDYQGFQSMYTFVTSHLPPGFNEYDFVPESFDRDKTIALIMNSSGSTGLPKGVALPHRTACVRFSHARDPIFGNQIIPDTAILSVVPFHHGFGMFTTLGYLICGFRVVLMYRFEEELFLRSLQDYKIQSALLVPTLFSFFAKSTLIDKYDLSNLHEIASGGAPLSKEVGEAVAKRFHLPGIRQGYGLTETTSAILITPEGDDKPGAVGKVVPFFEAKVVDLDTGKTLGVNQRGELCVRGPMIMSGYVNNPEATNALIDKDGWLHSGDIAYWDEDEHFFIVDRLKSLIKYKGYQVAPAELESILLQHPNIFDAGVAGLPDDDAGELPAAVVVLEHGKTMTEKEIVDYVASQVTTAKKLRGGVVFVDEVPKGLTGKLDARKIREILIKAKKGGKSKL

| Compound | IC50 [1, 5] [µM] | IC50 ([2]; read-out: rLuc IC50) [µM] | IC50 [3] [µM] | IC50 [1, 6] [µM] | Emax ([1]; HepG2-A16-CD81, 48 h) [%] | IC50 [4] [µM] | inhibition at 2 µM [4] [%] | HepG2 cytotoxicity 12pt dose response: Maximum inhibition (%) [3] [%] | inhibition at 10 µM ([1]; HepG2-A16-CD81, primary screen, 10 uM) [%] | Emax ([2]; dose response, maximum inhibition, read-out: rLuc inhibition dose response: Maximum inhibition (%)) [%] | IC50 ([2]; dose response, read-out: rLuc inhibition dose response: IC50) [µM] |
| --- | --- | --- | --- | --- | --- | --- | --- | --- | --- | --- | --- |
| CCS(=O)(=O)N1CCc2ccc(NC(=O)Nc3cccc(C)c3)cc21 [DDD01025922] | 3.66 | > 50 | 16.6 | – | – | – | – | – | – | – | – |
| CCS(=O)(=O)N1CCc2ccc(NC(=O)Nc3cccc(F)c3)cc21 [DDD01025926] | 9.31 | > 25 | 17.8 | – | – | – | – | – | – | – | – |
| Cc1cnc(NC(=O)c2csc(NC3CCCC3)n2)s1 [DDD01026924] | 8.33 | 24.8 | > 25 | – | – | – | – | – | – | – | – |
| CCCc1cc(=O)[nH]c(-n2nc(C3CC3)cc2N)n1 [DDD01027468] | 4.69 | > 25 | 20.5 | – | – | – | – | – | – | – | – |
| CC(C)c1cc(=O)[nH]c(-n2nc(C3CC3)cc2N)n1 [DDD01027469] | 1.61 | > 25 | 18.9 | – | – | – | – | – | – | – | – |
| Cc1cc(C(=O)N2CCN(c3nc4c(C(C)C)cccc4s3)CC2)no1 [DDD01027513] | 0.822 | > 50 | > 25 | – | – | – | – | – | – | – | – |
| Cc1cc(C(=O)N2CCN(c3nc4c(C(C)C)cccc4s3)CC2)on1 [DDD01027654] | 4 | > 50 | > 25 | – | – | – | – | – | – | – | – |
| Cc1[nH]/c(=N\C(=O)c2csc(NC3CCCC3)n2)sc1C [DDD01035522] | 0.832 | 44.4 | 11 | – | – | – | – | – | – | – | – |
| CCS(=O)(=O)N1CCc2ccc(NC(=O)Nc3cccc(SC)c3)cc21 [DDD01035781] | 1.38 | > 25 | 3.39 | – | – | – | – | – | – | – | – |
| Fc1ccc(CN2CCCC(c3cc4ncccc4[nH]3)C2)cc1 (stereo not shown) [DDD01057419] | 8.45 | > 25 | > 25 | – | – | – | – | – | – | – | – |
| COc1cc(C)c(CN2CCc3nc4ccsc4c(=O)n3CC2)cc1C [DDD01059934] | 8.88 | > 25 | > 25 | – | – | – | – | – | – | – | – |
| O=c1c2sccc2nc2n1CCN(Cc1ccccc1C(F)(F)F)CC2 [DDD01059968] | 6.77 | > 25 | > 25 | – | – | – | – | – | – | – | – |
| COc1ccc(-c2ccc(C3CNCCO3)nc2)cc1 (stereo not shown) [DDD01061023] | < 0.000141 | 0.03 | > 50 | – | – | – | – | – | – | – | – |
| CCc1nc(CN2CCCN(c3ncnc4ccsc34)CC2)no1 [DDD01071387] | 9.87 | – | > 50 | – | – | – | – | – | – | – | – |
| CCc1nc(CN2CCCN(c3ncnc4ccccc34)CC2)no1 [DDD01080636] | 0.691 | > 50 | 1.85 | – | – | – | – | – | – | – | – |
| COc1ccc2cc(C3CN(C(=O)CCNC(C)=O)CCO3)ccc2c1 (stereo not shown) [DDD01248593] | 0.333 | 9.9 | > 25 | – | – | – | – | – | – | – | – |
| CNC(=O)CCC(=O)N1CCOC(c2ccc3cc(OC)ccc3c2)C1 (stereo not shown) [DDD01251007] | 0.000954 | 23.5 | > 25 | – | – | – | – | – | – | – | – |
| COc1ccc2cc(C3CN(C(=O)N(C)C)CCO3)ccc2c1 (stereo not shown) [DDD01257372] | < 0.000141 | 3.45 | > 25 | – | – | – | – | – | – | – | – |
| NC(=O)C1CN(C(=O)Nc2cc(Cl)cc(Cl)c2)CCO1 (stereo not shown) [UCSD-0586016] | – | – | – | 1.39 | 102 | 16.9 | 11.4 | 92.5 | – | – | – |
| CCc1nc(CN2CCCN(c3ncnc4ccsc34)CC2)no1 [UCSD-0620395] | – | – | – | 9.87 | – | > 50 | 12.5 | 49.7 | – | – | – |
| Cc1ccc(CN2CCCC3(CCN(Cc4ccoc4)CC3)C2)cc1 [UCSD-0791105] | – | – | – | 7.88 | 99.9 | 43.8 | -2.23 | 55.5 | – | – | – |
| Cc1nc(NCc2nonc2C)cc(C(C)Cn2nc(C)c(C)c2C)n1 (stereo not shown) [UCSD-0799497] | – | – | – | – | – | – | 87.2 | – | 60.2 | – | – |
| CN(CCc1ccncc1)CCc1nccs1 [UCSD-0805829] | – | – | – | 0.495 | 87.7 | > 50 | 2.05 | -1.84 | – | – | – |

| Compound | IC50 [1, 5] [µM] | IC50 ([2]; read-out: rLuc IC50) [µM] | IC50 [3] [µM] | IC50 [1, 6] [µM] | Emax ([1]; HepG2-A16-CD81, 48 h) [%] | IC50 [4] [µM] | inhibition at 2 µM [4] [%] | HepG2 cytotoxicity 12pt dose response: Maximum inhibition (%) [3] [%] | inhibition at 10 µM ([1]; HepG2-A16-CD81, primary screen, 10 uM) [%] | Emax ([2]; dose response, maximum inhibition, read-out: rLuc inhibition dose response: Maximum inhibition (%)) [%] | IC50 ([2]; dose response, read-out: rLuc inhibition dose response: IC50) [µM] |
| --- | --- | --- | --- | --- | --- | --- | --- | --- | --- | --- | --- |
| CCn1ccnc1CNCC(c1ccc(C)s1)N1CCOCC1 (stereo not shown) [UCSD-0810145] | – | – | – | 38.3 | 88.9 | 46.2 | 16.3 | 56.3 | – | – | – |
| CC(C)CC(=O)NCc1cccc(OCCN(C)C2CCOCC2)c1 [UCSD-0810838] | – | – | – | > 50 | 39.1 | > 50 | 38.8 | 7.9 | – | – | – |
| Cc1n[nH]cc1CNC1CCN(c2cccc(C(F)(F)F)c2)CC1 [UCSD-0814169] | – | – | – | 9.3 | 88.9 | > 50 | -9.01 | 7.17 | – | – | – |
| CCOc1ccccc1CNC(=O)NCC(c1cnn(C)c1)N(C)C (stereo not shown) [UCSD-0816742] | – | – | – | > 50 | 36.1 | > 50 | 13.9 | -5.65 | – | – | – |
| Cc1cccc(NCc2ncc(C(C)(C)C)o2)c1 [UCSD-0816980] | – | – | – | 16.6 | 73.4 | > 50 | 14.1 | 11.5 | – | – | – |
| CCc1ccccc1OC1CN(C(=O)c2ccnc(OC)c2)C1 [UCSD-0824378] | – | – | – | 16.6 | 80.5 | > 50 | 8.15 | 46.8 | – | – | – |
| O=C(O)c1cccnc1N1CCN(Cc2ccc(F)cc2)C(CCO)C1 (stereo not shown) [UCSD-0826099] | – | – | – | > 50 | 46.3 | > 50 | 9.42 | 4.04 | – | – | – |
| Cc1ccc2cc(C3(O)CCN(C(=O)CSC(C)C)CC3)ccc2n1 [UCSD-0827397] | – | – | – | 16.9 | – | > 50 | 33.3 | 39.9 | – | – | – |
| COc1cccc(CN2CCC(CO)(Cc3ccc(Cl)cc3)CC2)c1O [UCSD-0828601] | – | – | – | 4.59 | 95 | 12.2 | 2.59 | 82.8 | – | – | – |
| C[C@H](c1ccc(F)cc1)n1c(C2CCN(C)CC2)n[nH]c1=O [UCSD-0830237] | – | – | – | 3.28 | 86.3 | > 50 | 3.06 | 8.15 | – | – | – |
| O=C(O)CSc1nnc(-c2cn[nH]c2)n1-c1ccccc1C(F)(F)F [UCSD-0830442] | – | – | – | 5.54 | – | > 50 | 6.23 | 4.76 | – | – | – |
| COc1ccc(F)c(CN2CCCC(O)(CNCC(C)(C)C)C2=O)c1 (stereo not shown) [UCSD-0830878] | – | – | – | 44.7 | 86.4 | > 50 | 5.34 | -11.6 | – | – | – |
| NCC1CCN(C2CCN(c3ccc(-c4ccco4)cc3)CC2)C1 (stereo not shown) [UCSD-0833151] | – | – | – | 4.7 | 99.4 | 14.1 | 3.93 | – | – | – | – |
| CN1CCCC(CCC(=O)N2CCc3sc(C(=O)N(C)C)cc3C2)C1 (stereo not shown) [UCSD-0833754] | – | – | – | > 50 | 38.7 | > 50 | -1.19 | 3.22 | – | – | – |
| Cc1csc2ncnc(N3CCC(Cn4cc(C(C)(C)O)nn4)CC3)c12 [UCSD-0835726] | – | – | – | 4.82 | 82.1 | > 25 | 4.96 | – | – | 5.67 | > 25 |
| NC(=O)CCn1cc(CNCc2csc(N)n2)c2ccccc21 [UCSD-0835992] | – | – | – | > 50 | 17.4 | > 50 | 9.68 | 10.2 | – | – | – |
| COc1ccccc1C1CCN(c2ccc3cc[nH]c3n2)CC1 [UCSD-0836069] | – | – | – | 3.52 | 93.5 | 31.8 | 5.11 | 60.6 | – | – | – |
| Cc1n[nH]c(CN2CCN(c3ncnc4scc(C)c34)CC2)c1Cl [UCSD-0836325] | – | – | – | 4.49 | 96 | > 16.6 | 27.1 | 66.1 | – | – | – |
| COc1ccc(OCCN2CCC(N3CCNC3=O)CC2)cc1 [UCSD-0840477] | – | – | – | 21.2 | 62.9 | > 50 | 38.5 | 42.1 | – | – | – |
| Cc1cccc(NC(=O)c2[nH]nc(C(C)C)c2Br)n1 [UCSD-0842406] | – | – | – | 0.0268 | 101 | > 50 | 17.4 | 40.5 | – | – | – |
| Cc1ncsc1C(=O)NC1CCN(Cc2ccc(C(F)(F)F)cc2)CC1 [UCSD-0842554] | – | – | – | 14.2 | 87.4 | > 50 | 9.14 | 41.9 | – | – | – |
| CC(=O)Nc1nc(C(=O)N2CCCC(n3cncn3)C2)cs1 (stereo not shown) [UCSD-0843277] | – | – | – | 21.5 | 81.2 | > 50 | -7.07 | -5.65 | – | – | – |
| CC(C)(C)c1nc(CN2CCCC(Cn3cncn3)C2)cs1 (stereo not shown) [UCSD-0846727] | – | – | – | > 50 | 24.9 | > 50 | 5.83 | -16.6 | – | – | – |

Reference: article PMC7155171, “Probing the Open Global Health Chemical Diversity Library for Multistage-Active Starting Points for Next-Generation Antimalarials” (ACS Infectious Diseases, 2020)
